Consider 5 compounds from PMC9994133, “Substrate selectivity and inhibition of histidine JmjC hydroxylases MINA53 and NO66” (RSC Chemical Biology, 2023).

Square brackets hold non-standard residues; d marks the D form. Ends that are not written are not given here. Peptide text beside a SMILES is read from it. Aad = N[C@@H](CCCC(=O)O)C(=O)O

The target of test [1] is T1, MINA53 (Homo sapiens, UniProt Q8IUF8).
T1 construct: His6; made in house; host or cells: Escherichia coli BL21(DE3), pET-28b
Nature of the test: MINA53 inhibition assay by Rpl27a peptides (MALDI-TOF MS). It is filed as biochemical. To be noted: 10 μM 2OG; for IC50: 400 nM MINA53, 10 nM to 250 μM inhibitor Rpl peptide, 100 μM L-ascorbic acid, 10 μM ferrous ammonium sulfate, 50 mM HEPES pH 7.5, Rpl27a-His39 substrate, duplicate assays. The procedure:
(§1) Having shown that our Rpl peptides are not, at least efficient, ROX substrates, we explored them as inhibitors of the recombinant human ROXs using MALDI-TOF assays (Rpl8/27a-N^τ-Me, Rpl8/27a-N^π-Me, Rpl8/27a-1-TriaA, Rpl8/27a-4-TriaA and Rpl8/27a-TetrA were excluded from the panels for NO66 and MINA53, respectively, due to signal overlap between the two peptides in the assays). Synthetic Rpl peptides (5 or 50 μM) were incubated with MINA53/NO66 (400 nM), ferrous ammonium sulfate (10 μM) and 2OG (10 μM) for 10 minutes, after which time the Rpl27a-His39 and Rpl8-His216 substrates were added, respectively, and the reactions were carried out for 2 hours at room temperature (Fig. 4 and Fig. S9, ESI ^†).
Fig. 4 Results for MINA53 inhibition at (a) 5 μM and (b) 50 μM by Rpl27a peptides. Error bars reported as standard errors (SE) carried out in duplicate. See Fig. 2 for analogue structures.
(§2) IC50 values were determined for the peptides that manifested clear inhibition potency by varying the concentration of the Rpl peptide inhibitor from 10 nM to 250 μM (Fig. 5 and Table 1).
(§3) IC50 values for MINA53 inhibition by Rpl27a peptides and NO66 inhibition by Rpl8 peptides. Conditions: 400 nM MINA53/NO66, 10 nM to 250 μM inhibitor Rpl peptide, 100 μM L-ascorbic acid, 10 μM ferrous ammonium sulfate, 10 μM 2OG in 50 mM MES buffer (pH 7.0) for NO66 and 50 mM HEPES (pH 7.5) for MINA53
(§4) MINA53 and NO66 inhibition assays in the presence of Rpl27a31-49 and Rpl8_205-224 peptides, respectively, were performed under the following assay conditions: 400 nM MINA53/NO66, 5/50 μM inhibitor Rpl peptide, 100 μM LAA, 10 μM FAS, 10 μM 2OG in 50 mM MES buffer (pH 7.0) for NO66 and 50 mM HEPES buffer (pH 7.5) for MINA53.[24] After 10 minutes of preincubation 5 μM of substrate peptide was added and the reaction was incubated for 2 hours at room temperature. A positive control reaction containing enzyme and unmodified peptide substrate without any inhibitors was included. After 2 hours the reaction was stopped by addition of 20 μL of 10% (v/v) LC-MS grade formic acid (Fisher Scientific), mixed 1 : 1 with α-cyano-4-hydroxycinnamic acid (CHCCA) matrix dissolved in a mixture of H2O and MeCN (1 : 1, v/v), and loaded onto an MTP 384 polished steel target to be analyzed by MALDI-TOF MS. MINA53/NO66 residual activity was determined by calculating the relative integral of the […] peptide to a control reaction in absence of potential inhibitory peptides. Experiments were carried out in duplicate.

Test [2] deals with T2, NO66 (Homo sapiens, UniProt Q9H6W3).
T2 construct: His6; made in house; host or cells: Escherichia coli BL21(DE3), pET-28b
T2 sequence (Q9H6W3 167-641): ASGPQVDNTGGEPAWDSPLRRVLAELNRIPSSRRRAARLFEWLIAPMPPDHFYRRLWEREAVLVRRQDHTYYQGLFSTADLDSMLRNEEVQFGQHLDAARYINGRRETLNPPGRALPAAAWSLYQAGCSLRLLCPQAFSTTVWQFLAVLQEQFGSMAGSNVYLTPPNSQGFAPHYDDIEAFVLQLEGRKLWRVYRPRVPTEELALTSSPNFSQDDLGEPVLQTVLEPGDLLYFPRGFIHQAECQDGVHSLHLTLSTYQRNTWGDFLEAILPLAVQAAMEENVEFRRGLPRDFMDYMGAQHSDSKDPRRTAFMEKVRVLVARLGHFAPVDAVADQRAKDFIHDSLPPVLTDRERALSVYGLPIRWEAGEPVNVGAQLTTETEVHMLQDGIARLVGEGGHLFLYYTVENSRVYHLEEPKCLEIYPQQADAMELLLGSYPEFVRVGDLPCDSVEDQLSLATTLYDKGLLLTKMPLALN
In words: NO66 inhibition assay by Rpl8 peptides (MALDI-TOF MS). To be noted: 10 μM 2OG; for IC50: 400 nM NO66, 10 nM to 250 μM inhibitor Rpl peptide, 100 μM L-ascorbic acid, 10 μM ferrous ammonium sulfate, 50 mM MES pH 7.0, Rpl8-His216 substrate, duplicate assays; for inhibition at 5 µM: 5 μM inhibitor Rpl8 peptide, 400 nM NO66, 100 μM LAA, 10 μM FAS, 50 mM MES pH 7.0, 10 min preincubation, then 5 μM Rpl8-His216 substrate, 2 hours, room temperature, duplicate. The test is classed as biochemical. The procedure:
as §1, §2, §3, §4
3. Inhibition supporting figure
Figure S9. Results from NO66 inhibition at A) 5 µM and B) 50 µM of Rpl8-based peptides. Error
bars are standard errors (SE) of duplicate analyses. […]

T1 sequence (Q8IUF8 26-464): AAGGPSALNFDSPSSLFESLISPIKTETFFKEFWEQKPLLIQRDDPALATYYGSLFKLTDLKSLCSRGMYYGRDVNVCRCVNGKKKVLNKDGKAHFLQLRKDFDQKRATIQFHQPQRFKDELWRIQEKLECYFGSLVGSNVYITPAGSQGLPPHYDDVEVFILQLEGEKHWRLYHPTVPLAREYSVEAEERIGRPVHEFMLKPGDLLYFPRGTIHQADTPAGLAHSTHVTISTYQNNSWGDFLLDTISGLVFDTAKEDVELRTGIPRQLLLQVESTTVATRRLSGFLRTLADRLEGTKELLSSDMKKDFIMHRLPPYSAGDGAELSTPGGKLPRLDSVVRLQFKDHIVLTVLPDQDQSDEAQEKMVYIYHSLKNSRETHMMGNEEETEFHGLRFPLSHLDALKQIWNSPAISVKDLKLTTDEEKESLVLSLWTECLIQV

`CC[C@H](C)[C@H](NC(=O)[C@H](CCCNC(=N)N)NC(=O)[C@H](Cc1c[nH]cn1)NC(=O)[C@H](Cc1c[nH]cn1)NC(=O)[C@H](CCCC(N)=O)NC(=O)[C@H](CC(C)C)NC(=O)CNC(=O)CNC(=O)[C@H](C)NC(=O)[C@H](CC(N)=O)NC(=O)CNC(=O)[C@H](CCCNC(=N)N)NC(=O)CN)C(=O)N[C@@H](CC(N)=O)C(=O)N[C@@H](Cc1ccccc1)C(=O)N[C@@H](CC(=O)O)C(=O)N[C@@H](CCCCN)C(=O)N[C@@H](Cc1ccc(O)cc1)C(=O)N[C@@H](Cc1c[nH]cn1)C(=O)N1CCC[C@H]1C(N)=O` [Rpl27a-hGln39] (H-GRGNAGGL[Aad](NH2)HHRINFDKYHP-NH2): the IC50 in test [1] was 1.47 ± 0.27 µM.
Same read-out and setting: next, GRGNAGGLQHHRINFDKYHP-NH2 [Rpl27a-Gln39]: 0.39 ± 0.16 µM.
Regarding NPVEHPFGGGNNQHIGKPST-NH2 [Rpl8-Asn216], in test [2], the midpoint of inhibition, the IC50, lay at 8.86 ± 0.36 µM and the inhibition at 5 µM was ~50%.
For `CC[C@H](C)[C@H](NC(=O)[C@H](Cc1c[nH]cn1)NC(=O)[C@H](CCC(N)=O)NC(=O)[C@H](CCCC(N)=O)NC(=O)[C@H](CC(N)=O)NC(=O)CNC(=O)CNC(=O)CNC(=O)[C@H](Cc1ccccc1)NC(=O)[C@@H]1CCCN1C(=O)[C@H](Cc1c[nH]cn1)NC(=O)[C@H](CCC(=O)O)NC(=O)[C@@H](NC(=O)[C@@H]1CCCN1C(=O)[C@@H](N)CC(N)=O)C(C)C)C(=O)NCC(=O)N[C@@H](CCCCN)C(=O)N1CCC[C@H]1C(=O)N[C@@H](CO)C(=O)N[C@H](C(N)=O)[C@@H](C)O` [Rpl8-hGln216] (H-NPVEHPFGGGN[Aad](NH2)QHIGKPST-NH2; N-terminus assumed) the same measures were 11.2 ± 0.4 µM and ~50%.
For the compound GRGNAGGLNHHRINFDKYHP-NH2 [Rpl27a-Asn39], the IC50 in test [1] worked out at 1.02 ± 0.11 µM. Further, the “MINA53 inhibition at 5 μM (in words)” value in test [1] (5 μM inhibitor Rpl27a peptide, 400 nM MINA53, 100 μM LAA, 10 μM FAS, 50 mM HEPES pH 7.5, 10 min preincubation, then 5 μM Rpl27a-His39 substrate, 2 hours, room temperature, duplicate) was “displayed inhibition”. The “MINA53 inhibition at 50 μM (in words)” value in test [1] (50 μM inhibitor Rpl27a peptide, 400 nM MINA53, 100 μM LAA, 10 μM FAS, 50 mM HEPES pH 7.5, 10 min preincubation, then 5 μM Rpl27a-His39 substrate, 2 hours, room temperature, duplicate) is “strong inhibition”.
